Where two headings read alike, the source gives them in different places.
Tests used:
[1] = test system: L. donovani (MHOM/SD/62/1S-CL2D, LdBOB) axenic amastigotes; assay: Leishmania donovani axenic amastigote dose response assay (resazurin); format: cell-based; settings: -logIC50 mol against L. donovani (LdBOB) axenic amastigotes, read-out: pIC50 Axenic (converted)
HepG2 cells = assay: Mammalian cell cytotoxicity assay (CellTiter-Glo); format: cell-based, human; settings: for IC50: Homo sapiens, -logIC50 mol against HepG2, read-out: PIC50 HepG2 (converted)
[2] = selectivity: pIC50 axenic minus pIC50 HepG2
[3] = selectivity, pIC50 axenic minus pIC50 HepG2

SMILES	IC50 [1]	further results
Cc1cc([N+](=O)[O-])ccc1NC(=O)Nc1cccc(F)c1 [SC/109683]	3.8 µM	pSI v HepG2 (HepG2 cells): 0.54; IC50 (HepG2 cells): 13.2 µM
O=C(Nc1ccc(OC(F)(F)F)cc1)Nc1ccc([N+](=O)[O-])cc1 [ST/500242]	4.27 µM	IC50 (HepG2 cells): 14.1 µM; pSI v HepG2 (HepG2 cells; [2]): 0.52
N#Cc1nc(-c2ccccc2)oc1S(=O)(=O)c1ccc(Br)cc1 [ST/1197083]	0.363 µM	IC50 (HepG2 cells): 60.3 µM; pSI v HepG2 (HepG2 cells; [2]): 2.22
OCc1ccn2nc(-c3ccc(F)cc3)c(-c3ccncc3)c2c1 [U11871/14/3]	1.91 µM	IC50 (HepG2 cells): > 100 µM; pSI v HepG2 (HepG2 cells; [3]): 1.72
OC(Cn1ccnc1)(c1ccc(Cl)cc1Cl)C1CCCCC1 (stereo not drawn) [CJL/479/3]	5.75 µM	IC50 (HepG2 cells): 45.7 µM; pSI v HepG2 (HepG2 cells; [2]): 0.90
O=C(Nc1nnc(C(F)(F)F)s1)c1ccc([N+](=O)[O-])c(Cl)c1 [ST/640830]	2.95 µM	IC50 (HepG2 cells): 25.7 µM; pSI v HepG2 (HepG2 cells; [2]): 0.94
O=C(Nc1cc(-c2nc3ccccc3[nH]2)ccc1Cl)c1ccc(Cl)c([N+](=O)[O-])c1 [ST/1193938]	8.71 µM	IC50 (HepG2 cells): 22.9 µM; pSI v HepG2 (HepG2 cells; [2]): 0.42
COc1ccc(N(Cc2ccc(-c3ccccc3)o2)S(=O)(=O)c2ccccn2)cc1 [AD102638-200A3B22]	5.89 µM	IC50 (HepG2 cells): 61.7 µM; pSI v HepG2 (HepG2 cells; [2]): 1.02
CNS(=O)(=O)c1ccc(C)c(Nc2nccc(-c3sc(C)nc3-c3ccccc3)n2)c1 [N6896-96-B1]	0.661 µM	IC50 (HepG2 cells): 38 µM; pSI v HepG2 (HepG2 cells; [2]): 1.76
C=CCSc1nsc(NC(=O)Nc2ccc(Cl)cc2C(F)(F)F)n1 [ST/566960]	0.501 µM	IC50 (HepG2 cells): 23.4 µM; pSI v HepG2 (HepG2 cells; [2]): 1.67
Cc1[nH]c2ccccc2c(=O)c1Cc1ccc(C(F)(F)F)cc1 [4671W 92C*A]	1.17 µM	IC50 (HepG2 cells): > 100 µM; pSI v HepG2 (HepG2 cells; [2]): 1.93
COc1ccc(Cl)cc1NC(=O)Nc1cccc(Br)c1 [C2180/12/1]	4.79 µM	IC50 (HepG2 cells): 66.1 µM; pSI v HepG2 (HepG2 cells; [2]): 1.14
O=C(Nc1nnc(C(F)(F)F)s1)c1ccc(Cl)cc1 [ST/570135]	3.47 µM	IC50 (HepG2 cells): 16.2 µM; pSI v HepG2 (HepG2 cells; [2]): 0.67
O=[N+]([O-])c1ccc(NS(=O)(=O)c2ccccc2)c(-c2ccccc2)c1 [VDPP/14/72/1]	5.01 µM	IC50 (HepG2 cells): 35.5 µM; pSI v HepG2 (HepG2 cells; [3]): 0.85
O=C(Nc1ccc2scnc2c1)c1ccc(Cl)s1 [ST/1127597]	6.46 µM	IC50 (HepG2 cells): 97.7 µM; pSI v HepG2 (HepG2 cells; [2]): 1.18
O=C(Nc1ccccc1Cl)C(=Cc1cccc(F)c1)C(=O)Nc1ccccc1Cl [ST/786453]	0.204 µM	IC50 (HepG2 cells): 6.76 µM; pSI v HepG2 (HepG2 cells; [2]): 1.52
O=C(O)c1cccc2c1C(=O)N(Cc1ccccc1F)C2 [ST/689197]	> 50 µM	
COc1ccc(Cl)cc1NC(=O)Nc1cccc(F)c1 [SC/109667]	11.5 µM	
Cc1cc(C)n2nc(S(=O)(=O)Nc3c(Cl)cccc3Cl)nc2n1 [ST/833860]	41.7 µM	
COc1ccc(-c2ccc(S(=O)(=O)Nc3ncc(Cl)cc3Cl)s2)cc1 [DJ107456-088A34]	27.5 µM	
CC(=O)N1N=C(c2ccccc2Cl)OC1COc1ccc(Cl)cc1 (stereo not drawn) [ST/1451125]	15.8 µM	
CN(C)CCNc1ccc2ncc(-c3ccc4ccccc4c3)n2n1 [ST/668081]	> 50 µM	

SMILES	IC50 [1]	further results
Fc1ccc(CNc2ncc(-c3ccncc3)c(-c3ccoc3)n2)cc1 [ST/945994]	> 50 µM	
Nc1ccc(S(=O)(=O)Nc2ccccc2Oc2ccc(Cl)cc2Cl)cc1 [SC/79553]	10.5 µM	
CC(C(O)(Cn1cncn1)c1ccc(F)cc1F)S(C)(=O)=O (stereo not drawn) [JCH/31/2]	> 50 µM	
Cc1ccc(-c2nc3ccccc3[nH]2)cc1NC(=O)c1cc2ccccc2o1 [ST48766-047X8]	11.7 µM	
CC1CSC(N(C(=O)CN2CSCC2=O)c2ccc(Cl)cc2)=N1 (stereo not drawn) [ST/812474]	> 50 µM	
CNc1nc(N)c([N+](=O)[O-])c(Nc2cccc(Cl)c2)n1 [ST/537896]	19.5 µM	
O=C(Nc1nnc(COc2ccc(F)cc2)s1)c1cnccn1 [ST/389620]	33.1 µM	
Cc1cccc(Nc2cccc3c(=O)[nH][nH]c(=O)c23)c1C [78/118]	> 50 µM	
COc1ccccc1-c1nc(-c2ccc(O)c(C(N)=O)c2)cs1 [ST/1261284]	33.1 µM	
O=C(O)Cc1c(-c2cccs2)nc2ccccc2c1-c1ccccc1 [ST/1080669]	12.9 µM	
COc1cc2c(cc1S(=O)(=O)c1ccc(COc3cccc(F)c3)cc1)CCN(C)CC2 [DC101675-085A1]	> 50 µM	
Cc1cc(O)c(Cl)c(C)c1NS(=O)(=O)c1ccc(Br)cc1 [ST/835722]	26.9 µM	
CN1CCN(CC(=O)Nc2ccc3c(c2)CCC3)CC1c1ccccc1 (stereo not drawn) [ST/961462]	> 50 µM	
CNC(=O)CN(C)c1nc(-c2cccs2)nc2sc(C)c(C)c12 [ST/1245806]	> 50 µM	
COc1ccc(S(=O)(=O)Nc2cc(Cl)ccc2C)c(C)c1C [ST/724177]	19.1 µM	
CC(=O)N1N=C(COc2ccc(Cl)c(C)c2)OC1c1ccc(C)o1 (stereo not drawn) [ST/1451045]	19.1 µM	
CN1CCC(Oc2cccc(C(=O)N3CCC(CNS(=O)(=O)c4cccc(F)c4)CC3)c2)CC1 [DS205504-126A32B5C8]	> 50 µM	
CC(NC(=O)c1c(O)c2sccc2[nH]c1=O)c1ccc(F)cc1 (stereo not drawn) [ST/1962332]	> 50 µM	
CC(c1ccccc1)N1Cc2cccc(C(=O)O)c2C1=O (stereo not drawn) [ST/641236]	> 50 µM	
O=C1CCc2cc(-c3csc(-c4ccsc4)n3)ccc2N1 [ST/1544102]	> 50 µM	
Cc1cnc(NS(=O)(=O)c2ccc(-c3ccc(F)cc3)s2)c(Br)c1 [DJ107456-057A22]	28.2 µM	
O[C@@](Cn1cncn1)(c1ccc(F)cc1F)C1CCOCC1 [RB/854/3]	> 50 µM	

SMILES	IC50 [1]	further results
Nc1ccc(-c2nc3cc(Cl)cc(Cl)c3o2)cc1 [ST/525525]	49 µM	
O=C(Nc1c(Br)c(C2CC2)nn1-c1ccccc1)C(Cl)(Cl)Cl [SC/96415]	20.4 µM	
O=C(Nc1ccc(OC(F)(F)F)cc1)c1ccc(Br)s1 [ST/631944]	13.2 µM	
NC(=O)c1cc(-c2csc(-c3ccsc3)n2)ccc1O [ST/1241904]	20.9 µM	
O=S(=O)(Nc1ccccc1CN1CCC(F)(F)C1)c1ccc(Cl)c(Cl)c1 [DS105792-004A16B1]	22.4 µM	
O=C(Nc1ccccc1C(=O)NCc1ccc(Cl)cc1)c1ccco1 [ST/771851]	> 50 µM	
COc1ccc(S(=O)(=O)Nc2ccccc2C(F)(F)F)c(Cl)c1Cl [ST/534228]	19.5 µM	
FC(F)(F)c1ccc(Nc2nc(-c3ccncc3)cs2)cc1 [ST/510927]	27.5 µM	
Cc1oc(-c2ccc(Cl)cc2)cc1C(=O)NCC(=O)c1cccs1 [ST/1260077]	34.7 µM	
CNS(=O)(=O)c1ccc(NC(=O)c2csc(C)c2-c2ccccc2)cc1 [ST/937316]	38.9 µM	
O=C(Nc1cccc(C(F)(F)F)c1)c1cc(-c2cccc(O)c2)on1 [ST/728737]	> 50 µM	
O=C(NCc1cccs1)c1sccc1NS(=O)(=O)c1ccccc1 [RF44798-098A21]	12.3 µM	
O=S(=O)(Nc1cccc(F)c1CNCc1ccco1)c1ccccc1Cl [DS105792-055A7B42]	32.4 µM	
Cc1ccccc1S(=O)(=O)N1CCN(c2nccc(-c3cccs3)n2)CC1 [ST/1415177]	21.9 µM	
CC1CCc2c(sc(NC(=O)c3cccs3)c2C#N)C1 (stereo not drawn) [SC/95708]	> 50 µM	
O=C(c1cccs1)c1conc1C(=O)c1ccc(Br)cc1 [ST/261533]	> 50 µM	
O=C(c1ccccc1)N1C(=O)C(c2ccccc2)Oc2ccccc21 (stereo not drawn) [ST/629481]	24.5 µM	
CCc1noc2nc(C)nc(NC3CCCCCC3)c12 [ST/1113587]	46.8 µM	
COc1ccc(Br)cc1C(=O)Nc1cc(Cl)ccc1O [ST/1108634]	16.6 µM	
Cc1oc2cc(O)ccc2c(=O)c1-c1nc2ccccc2s1 [ST/517902]	> 50 µM	
c1ccc(N2CCN(c3ncc(-c4cccs4)cn3)CC2)nc1 [SC/89927]	> 50 µM	
COc1cccc(C(=O)Nc2nc(-c3cccs3)ns2)c1 [ST/1197587]	21.9 µM	

SMILES	IC50 [1]	further results
O=C(NCc1ccco1)c1ccccc1NS(=O)(=O)c1cccs1 [ST/662660]	20.4 µM	
CCc1ccccc1Oc1cncc(-c2nc3ccccc3[nH]2)n1 [ST/1138848]	> 50 µM	
O=S(=O)(Nc1c(F)cccc1C(F)(F)F)c1ccc(-c2ccccc2F)s1 [DJ107456-080A211]	26.9 µM	
Cc1ccnc2nc(C(=O)N3CCCSC3=Nc3cccc(C(F)(F)F)c3)nn12 [ST/682329]	31.6 µM	
CSc1nsc(NC(=O)Nc2ccc(Cl)cc2)n1 [ST/905433]	30.2 µM	
Cc1ccc(C2=NN(S(=O)(=O)c3ccc(Cl)cc3F)C(C)C2)cc1 (stereo not drawn) [U20197/52/94]	> 50 µM	
CCOc1ccc2[nH]c(=O)c(CN(Cc3cccnc3)C(=O)Nc3ccc(F)cc3)cc2c1 [ST/696972]	> 50 µM	
O=C1CCc2cc(-c3csc(-c4cccnc4)n3)ccc2N1 [R9196/29/59]	> 50 µM	
CC1CSC(N(C(=O)Cc2cccs2)c2ccc(Cl)cc2)=N1 (stereo not drawn) [ST/815117]	33.9 µM	
O=C1CC(c2ccccc2)N(c2ccc(Cl)cc2)N1 (stereo not drawn) [0014C 75***]	26.9 µM	
Cc1c(-c2noc(-c3ccc(OC(C)C)c(Cl)c3)n2)ccc2c1CCNC2 [N11266-30-A1]	22.4 µM	
Cc1ncccc1Oc1ncc(Cl)cc1S(=O)(=O)Nc1cc(Cl)ccc1F [AV207107-102A1]	12.6 µM	
N#Cc1ccc(Cn2cc(C(=O)c3cccs3)c3ccccc32)cc1 [ST/516872]	14.8 µM	
CCOc1cc2c(cc1S(=O)(=O)c1ccc(COc3ccc(F)cc3)cc1)CCN(C)CC2 [AL101938-139A1]	31.6 µM	
O=C(c1ccc(Cl)cc1)N1CCCn2c1nc1ccccc1c2=O [ST/1938375]	> 50 µM	
Nc1nonc1-c1nc2c(-c3cccc(F)c3)nccc2n1C1CCNCC1 [IS203450-048A1]	40.7 µM	
N#Cc1ccc(NC(=O)c2cccs2)cc1C#N [ST/646239]	20.9 µM	
Fc1ccc(-c2nn3c(OCC(F)(F)F)cccc3c2-c2ccncc2)cc1 [U12546/102/3]	13.5 µM	
COc1ccc(C(=O)c2nocc2C(=O)c2ccc(Cl)cc2)cc1 [ST/261550]	44.7 µM	
